Source: PMC8621101, “Inhibition of XPO-1 Mediated Nuclear Export through the Michael-Acceptor Character of Chalcones” (Pharmaceuticals, 2021)

Columns and labels:
Hap-1 cells = assay: Cell proliferation assay (IncuCyte confluence), Hap-1; type: cell-based; details: Homo sapiens, HAP1; Hap-1 chronic myeloid leukemia; 72 h; mean of two independent experiments ± SEM; read-out: IC50 antiproliferative activity Hap-1
Method: (§1) Cancer cell lines HCT-116, NCI-H460, HL-60, K-562 and Z-138 were acquired from the American Type Culture Collection (ATCC, Manassas, VA, USA). The DND-41 cell line was purchased from the Deutsche Sammlung von Mikroorganismen und Zellkulturen (DSMZ Leibniz-Institut, Brunswick, Germany), and the HAP-1 cell line was ordered from Horizon Discovery (Horizon Discovery Group, Water Beach, UK). All cell lines were cultured as recommended by the suppliers. Culture media were purchased from Gibco Life Technologies and supplemented with 10% fetal bovine serum (HyClone, GE Healthcare Life Sciences, Chicago, Illinois, USA).
(§2) Adherent cell lines HCT-116, NCI-H460 and Hap-1 cells were seeded at a density between 500 and 1500 cells per well in 384-well tissue culture plates (Greiner). After overnight incubation, cells were treated with different concentrations of the test compounds. Suspension cell lines HL-60, K-562, Z-138 and DND-41 were seeded at densities ranging from 2500 to 5500 cells per well in 384-well culture plates containing the test compounds at the same concentration points.

HCT-116 cells = assay: Cell proliferation assay (IncuCyte confluence), HCT-116; type: cell-based; details: Homo sapiens; HCT-116 colorectal carcinoma; 72 h; mean of two independent experiments ± SEM; read-out: IC50 antiproliferative activity HCT-116
Method: as §1, §2

DND-41 cells = assay: Cell proliferation assay (IncuCyte confluence), DND-41; type: cell-based; details: DND41; DND-41 acute lymphoblastic leukemia; 72 h; mean of two independent experiments ± SEM; read-out: IC50 antiproliferative activity DND-41
Method: as §1, §2

K-562 cells = assay: Cell proliferation assay (IncuCyte confluence), K-562; type: cell-based; details: Homo sapiens, K562; K-562 chronic myeloid leukemia; 72 h; mean of two independent experiments ± SEM; read-out: IC50 antiproliferative activity K-562
Method: as §1, §2

Z-138 cells = assay: Cell proliferation assay (IncuCyte confluence), Z-138; type: cell-based; details: Homo sapiens; Z-138 non-Hodgkin lymphoma; 72 h; mean of two independent experiments ± SEM; read-out: IC50 antiproliferative activity Z-138
Method: as §1, §2

XPO1 (Jurkat XPO1^WT) = biological target: T1, XPO1 (Jurkat XPO1^WT) (Homo sapiens, UniProt O14980); assay: RanBP1 immunofluorescence (XPO1-mediated nuclear export) in wild-type Jurkat cells; type: cell-based; details: 3 h; for Subcellular localization of RanBP1, wild-type Jurkat: compound at 4 μM; for IC50: nuclear export of RanBP1 cargo, wild-type Jurkat, mean ± SD of two independent experiments, read-out: IC50 XPO1 inhibition Jurkat XPO1^WT
T1 construct: RanBP1 immunofluorescence staining was performed on both wild type and mutant XPO1^C528S Jurkat cells; endogenous in cells; host or cells: wild-type Jurkat leukemia cells
Method: (§3) The effect of the mutation on the activity of the inhibitors was assessed by the visualization of the subcellular localization of the XPO1 cargo RanBP1.
(§4) Stably transfected HeLa NLSSV40-AcGFP-NESPKI were cultured as described in Vercruysse et al.
(§5) Cells were harvested at 400× g, washed in PBS and then transferred into an 8-well µ-Slide (Ibidi) pretreated with 0.1% (w/v) poly-L-lysine (Sigma). Cells were allowed to adhere to the slides and then subsequently fixed (4% PFA in PBS), washed and permeabilized (0.2% Triton X-100 in PBS). Further immunofluorescence staining was then performed according to standard procedures. Employed antibodies were rabbit anti-RanBP1 (ab97659, Abcam, Cambridge, UK) at a 1:500 dilution and secondary Alexa Fluor 488 goat anti-rabbit antibody (A11008, Invitrogen, ThermoFisher Scientific). Cell nuclei were counterstained with DAPI, and the samples were imaged by confocal microscopy on a Leica TCS SP5 confocal microscope (Leica Microsystems, Weitzlar, Germany), employing a HCX PL APO 63× (NA 1.2) water immersion objective. Subsequently, fluorescence was read on an ArrayScan XTI High Content Reader (Thermo Fisher Scientific, Waltham, MA, USA). Nuclear and cytoplasmic compartments were segmented, and their average pixel intensities in the green channel were quantitated similarly as for the XPO1 phenotypic reporter assay.

[1] = biological target: T2, XPO1^C528S (Jurkat XPO1^C528S) (Homo sapiens, UniProt O14980, C528S); assay: RanBP1 immunofluorescence (XPO1-mediated nuclear export) in mutant XPO1^C528S Jurkat cells; type: cell-based; details: for Subcellular localization of RanBP1, mutant XPO1^C528S Jurkat: compound at 4 μM; for Subcellular localization of RanBP1, mutant XPO1^C528S Jurkat / IC50: 3 h; for XPO1 inhibitory activity against Jurkat XPO1^C528S, in words / IC50: mutant XPO1^C528S Jurkat; for IC50: nuclear export of RanBP1 cargo, mean ± SD of two independent experiments, read-out: IC50 XPO1 inhibition Jurkat XPO1^C528S
T2 construct: CRISPR/Cas9 genome editing of the Jurkat cell line was performed as in Neggers et al. [43] to generate a XPO1^C528S mutant cell line; endogenous in cells; host or cells: Jurkat cells genome-edited by CRISPR/Cas9 at the XPO1 locus (XPO1^C528S)
T2 sequence (O14980 whole entry C528S): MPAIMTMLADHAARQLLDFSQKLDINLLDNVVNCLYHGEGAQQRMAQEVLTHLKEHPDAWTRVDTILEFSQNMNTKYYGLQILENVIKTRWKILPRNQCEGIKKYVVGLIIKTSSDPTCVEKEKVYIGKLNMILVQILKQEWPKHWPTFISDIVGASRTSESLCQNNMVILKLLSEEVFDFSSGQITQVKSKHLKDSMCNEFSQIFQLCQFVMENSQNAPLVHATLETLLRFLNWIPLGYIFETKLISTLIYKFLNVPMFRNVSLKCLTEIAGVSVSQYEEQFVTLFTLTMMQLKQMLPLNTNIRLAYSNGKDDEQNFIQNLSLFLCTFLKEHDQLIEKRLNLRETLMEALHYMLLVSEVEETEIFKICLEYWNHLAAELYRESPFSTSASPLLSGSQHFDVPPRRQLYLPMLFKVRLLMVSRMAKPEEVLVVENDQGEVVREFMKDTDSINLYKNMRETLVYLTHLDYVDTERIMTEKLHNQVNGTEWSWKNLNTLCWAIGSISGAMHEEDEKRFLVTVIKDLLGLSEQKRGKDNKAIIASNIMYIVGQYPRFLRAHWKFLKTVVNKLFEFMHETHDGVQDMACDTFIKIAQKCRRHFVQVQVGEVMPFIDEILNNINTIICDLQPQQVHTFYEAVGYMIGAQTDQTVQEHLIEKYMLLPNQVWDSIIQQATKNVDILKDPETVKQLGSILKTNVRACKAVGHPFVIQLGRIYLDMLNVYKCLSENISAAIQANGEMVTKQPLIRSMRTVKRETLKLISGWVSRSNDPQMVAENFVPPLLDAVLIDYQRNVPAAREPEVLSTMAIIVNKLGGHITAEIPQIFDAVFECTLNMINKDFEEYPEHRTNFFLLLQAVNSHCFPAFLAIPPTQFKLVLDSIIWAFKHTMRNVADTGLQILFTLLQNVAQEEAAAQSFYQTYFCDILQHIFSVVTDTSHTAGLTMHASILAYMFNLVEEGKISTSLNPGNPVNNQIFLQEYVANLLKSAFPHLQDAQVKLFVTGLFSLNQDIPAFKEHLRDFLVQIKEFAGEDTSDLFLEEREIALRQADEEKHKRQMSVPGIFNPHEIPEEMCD
Method: as §3, §4, §5

IC50 (HCT-116 cells) [nM]	IC50 (K-562 cells) [nM]	Subcellular localization of RanBP1, wild-type Jurkat (XPO1 (Jurkat XPO1^WT))	IC50 (XPO1 (Jurkat XPO1^WT)) [nM]	Subcellular localization of RanBP1, mutant XPO1^C528S Jurkat [1]	XPO1 inhibitory activity against Jurkat XPO1^C528S, in words [1]	IC50 [1] [nM]	melting point [°C]	Structure (SMILES)	IC50 (Hap-1 cells) [nM]	IC50 (DND-41 cells) [nM]	IC50 (Z-138 cells) [nM]
2400 ± 200	1800 ± 80	RanBP1 accumulated in the nucleus	2200 ± 30	its nuclear export was not inhibited	lost their inhibitory activity	> 5000	175 to 177	O=C(/C=C/c1cncnc1)c1ccc2ccccc2c1 [Compound 9, (E)-1-(Naphthalen-2-yl)-3-(pyrimidin-5-yl)prop-2-en-1-one]	2300 ± 200	2100 ± 500	1800 ± 50
4700 ± 1700	7200 ± 1900	RanBP1 accumulated in the nucleus	300 ± 300	its nuclear export was not inhibited	lost their inhibitory activity	> 5000	184 to 185	COc1cc(OC)cc(C(=O)/C=C/c2cncnc2)c1 [Compound 10, (E)-1-(3′,5′-Dimethoxyphenyl)-3-(pyrimidin-5′’-yl)prop-2-en-1-one]	2100 ± 200	1500 ± 200	500 ± 50
